The record followed here is the supplement of paper PMC10307832.

Experiment in all cases: relative viability (nuclei count vs DMSO), 5 days (fraction); higher = more cells survive
Compound in one experiment: Cc1nc(Nc2ncc(C(=O)Nc3c(C)cccc3Cl)s2)cc(N2CCN(CCO)CC2)n1 [Dasatinib]
A digest of the protocol: (§1)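 Acceptance criteria were a control CV below 25% and at least one doubling per plate. Lung cancer cell lines in 1536-well plates got five library-drug doses (not always all listed) √10 apart by pinning and were left 5 days with no medium change. Viability divides treated-well nuclei by vehicle-well nuclei and is the median across plates. Nuclei were counted by MetaXpress from 4× Hoechst images.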

Compound in the next experiment: C1CC1C(=O)NC2=NNC3=C2C=CC(=C3)C4=CC(=CC=C4)C(=O)NC5CC5 [XMD13-2]
The method in brief: as §1

Compound in a further experiment: Cc1ccc(C(=O)Nc2cccc(C(F)(F)F)c2)cc1Nc1cncc(C(N)=O)c1 [ALW-II-49-7]
The method in brief:
as §1

Turning to UMC-11, the relative viability stood at 0.916 with Dasatinib (0.005 µM); 0.801 with Dasatinib (0.01581 µM); 0.63 with Dasatinib (0.05 µM); 0.479 in the experiment with Dasatinib (0.075 µM, anchor plate); 0.415 in the experiment with Dasatinib (0.1581 µM); 0.37 in the experiment with Dasatinib (0.5 µM). The relative viability amounted to 1.12 in the experiment with XMD13-2 (0.05 µM); 0.945 with XMD13-2 (0.1581 µM); 0.993 with XMD13-2 (0.5 µM); 0.887 with XMD13-2 (1.581 µM); 1.01 with XMD13-2 (5 µM); 1.01 with ALW-II-49-7 (0.08 µM). For the same cell line, the relative viability with ALW-II-49-7 (0.253 µM) is 1.02; with ALW-II-49-7 (0.8 µM), 0.975; with ALW-II-49-7 (2.53 µM), 1.02; with ALW-II-49-7 (8 µM) it was 1.01.
